According to patent publication US8637511B2, “Aminopyrimidines useful as kinase inhibitors” (Vertex Pharmaceuticals Incorporated, priority 2005, dated 2014):
Values joined by “and” are separate entries in the source; they are usually repeats but may differ in a detail not shown here. Identical values can stand only once. Like-named read-outs stand apart in the source and are kept apart here.

What was measured:
Colo205 cells = experiment: Analysis of cell proliferation and viability; assay type: cell-based; conditions: Homo sapiens, read-out: IC50 value
Experimental: Colo205 cells were seeded in 96 well plates and serially diluted compound was added to the wells in duplicate. Control groups included untreated cells, the compound diluent (0.1% DMSO alone) and culture medium without cells.
To measure proliferation, 3 h prior to the end of the experiment 0.5 μCi of 3H thymidine was added to each well. Cells were then harvested and the incorporated radioactivity counted on a Wallac microplate beta-counter. Cell viability was assessed using Promega CellTiter 96AQ to measure MTS conversion. Dose response curves were calculated using either Prism 3.0 (GraphPad) or SoftMax Pro 4.3.1 LS (Molecular Devices) software.

JAK3 = target: T1, JAK3 (Homo sapiens, UniProt P52333); experiment: biochemical
T1 sequence (P52333 1-1124): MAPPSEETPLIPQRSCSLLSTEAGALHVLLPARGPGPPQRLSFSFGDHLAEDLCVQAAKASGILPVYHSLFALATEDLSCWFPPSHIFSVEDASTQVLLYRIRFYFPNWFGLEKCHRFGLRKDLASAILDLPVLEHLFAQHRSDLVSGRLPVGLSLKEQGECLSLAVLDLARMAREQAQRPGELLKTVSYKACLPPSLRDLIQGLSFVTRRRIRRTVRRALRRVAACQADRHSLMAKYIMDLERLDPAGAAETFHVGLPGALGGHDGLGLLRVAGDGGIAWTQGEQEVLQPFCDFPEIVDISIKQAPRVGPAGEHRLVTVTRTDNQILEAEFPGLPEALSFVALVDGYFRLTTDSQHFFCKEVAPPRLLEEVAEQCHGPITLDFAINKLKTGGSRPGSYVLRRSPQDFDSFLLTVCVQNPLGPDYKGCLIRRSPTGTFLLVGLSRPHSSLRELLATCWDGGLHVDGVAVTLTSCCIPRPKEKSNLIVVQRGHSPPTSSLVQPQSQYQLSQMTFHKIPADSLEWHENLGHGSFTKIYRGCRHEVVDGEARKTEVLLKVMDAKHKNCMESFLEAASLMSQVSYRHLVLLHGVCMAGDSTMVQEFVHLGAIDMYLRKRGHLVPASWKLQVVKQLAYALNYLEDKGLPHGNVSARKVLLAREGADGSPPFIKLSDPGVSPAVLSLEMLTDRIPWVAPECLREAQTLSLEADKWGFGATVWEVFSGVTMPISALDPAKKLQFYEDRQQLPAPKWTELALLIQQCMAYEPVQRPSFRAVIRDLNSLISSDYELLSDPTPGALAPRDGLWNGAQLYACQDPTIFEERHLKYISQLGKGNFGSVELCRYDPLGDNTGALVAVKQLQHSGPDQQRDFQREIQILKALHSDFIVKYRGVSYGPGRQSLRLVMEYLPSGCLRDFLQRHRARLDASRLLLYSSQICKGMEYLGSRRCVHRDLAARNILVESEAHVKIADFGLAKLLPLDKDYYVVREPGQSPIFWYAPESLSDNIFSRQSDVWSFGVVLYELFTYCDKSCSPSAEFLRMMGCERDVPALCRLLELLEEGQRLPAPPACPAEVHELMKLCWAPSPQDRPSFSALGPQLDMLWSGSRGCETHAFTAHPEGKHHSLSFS

Aurora-1 (Aurora B) = Aurora-1 (Aurora B) (Homo sapiens, UniProt Q96GD4); experiment: Aurora-1 (Aurora B) inhibition assay (radiometric); assay type: biochemical; conditions: read-out: Aurora B kinase Ki value
Chain of Aurora-1 (Aurora B) (Q96GD4 whole entry): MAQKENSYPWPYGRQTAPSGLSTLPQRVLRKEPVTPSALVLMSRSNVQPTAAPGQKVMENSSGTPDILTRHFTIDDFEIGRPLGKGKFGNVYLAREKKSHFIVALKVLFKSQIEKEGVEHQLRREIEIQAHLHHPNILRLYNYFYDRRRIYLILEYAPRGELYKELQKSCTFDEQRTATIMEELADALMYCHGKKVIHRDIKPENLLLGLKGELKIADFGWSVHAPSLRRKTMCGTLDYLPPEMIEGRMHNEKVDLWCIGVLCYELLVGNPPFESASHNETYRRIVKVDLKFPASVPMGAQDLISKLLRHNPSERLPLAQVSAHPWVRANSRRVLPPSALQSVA
Experimental: An assay buffer solution was prepared which consisted of 25 mM HEPES (pH 7.5), 10 mM MgCl2, 0.1% BSA and 10% glycerol. […] To 22 μL of the Aurora-B solution, in a 96-well plate, was added 2 μl of a compound stock solution in DMSO and the mixture allowed to equilibrate for 10 minutes at 25° C. The enzyme reaction was initiated by the addition of 16 μl stock [γ-^33P]-ATP solution (˜20 nCi/μL) prepared in assay buffer, to a final assay concentration of 800 μM. The reaction was stopped after 3 hours by the addition of 16 μL 500 mM phosphoric acid and the levels of ^33P incorporation into the peptide substrate were determined by the following method.
A phosphocellulose 96-well plate (Millipore, Cat no. MAPHNOB50) was pre-treated with 100 μL of a 100 mM phosphoric acid prior to the addition of the enzyme reaction mixture (40 μL). The solution was left to soak on to the phosphocellulose membrane for 30 minutes and the plate subsequently washed four times with 200 μL of a 100 mM phosphoric acid. […] Levels of non-enzyme catalyzed background radioactivity were determined by adding 16 μL of the 500 mM phosphoric acid to control wells, containing all assay components (which acts to denature the enzyme), prior to the addition of the [γ-^33P]-ATP solution. Levels of enzyme catalyzed. ^33P incorporation were calculated by subtracting mean background counts from those measured at each inhibitor concentration. […] Ki values were calculated from initial rate data by non-linear regression using the Prism software package (Prism 3.0, Graphpad Software, San Diego, Calif.).

Aurora-2 (Aurora A) = target: T2, Aurora-2 (Aurora A) (Homo sapiens, UniProt O14965); experiment: Aurora-2 (Aurora A) inhibition assay, coupled enzyme; assay type: biochemical
T2 sequence (O14965 1-403): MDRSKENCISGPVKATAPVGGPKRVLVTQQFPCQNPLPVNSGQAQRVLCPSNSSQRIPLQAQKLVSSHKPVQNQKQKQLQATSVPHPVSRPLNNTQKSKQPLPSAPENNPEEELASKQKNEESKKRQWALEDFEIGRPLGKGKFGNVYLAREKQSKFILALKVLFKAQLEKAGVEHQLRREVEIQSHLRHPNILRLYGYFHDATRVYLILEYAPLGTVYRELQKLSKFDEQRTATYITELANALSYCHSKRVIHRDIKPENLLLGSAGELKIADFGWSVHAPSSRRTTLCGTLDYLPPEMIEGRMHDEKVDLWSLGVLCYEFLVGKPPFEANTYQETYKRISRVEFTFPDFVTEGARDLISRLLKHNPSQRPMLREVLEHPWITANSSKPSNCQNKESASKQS
Experimental: Assays were carried out in a mixture of 100 mM Hepes (pH7.5), 10 mM MgCl2, 1 mM DTT, 25 mM NaCl, 2.5 mM phosphoenolpyruvate, 300 μM NADH, 30 μg/ml pyruvate kinase and 10 μg/ml lactate dehydrogenase. […] Assays were carried out at 30° C. and in the presence of 40 nM Aurora-2.
The plate was preincubated for 10 minutes at 30° C. and the reaction initiated by addition of 10 μl of Aurora-2. Initial reaction rates were determined with a Molecular Devices SpectraMax Plus plate reader over a 10 minute time course. IC50 and Ki data were calculated from non-linear regression analysis using the Prism software package (GraphPad Prism version 3.0cx for Macintosh, GraphPad Software, San Diego Calif., USA).

[1] = COLO 205, Colo205 cells, incubated for 72 hours
[2] = COLO 205, Colo205 cells, incubated for 96 hours
[3] = read-out: Aurora A kinase Ki value

Structure (SMILES)	IC50 (Colo205 cells; [1])	Ki (JAK3)	IC50 (Colo205 cells; [2])	Ki (Aurora-1 (Aurora B))	Ki (Aurora-2 (Aurora A); [3])	other results
Cc1cc(Nc2cc(N3CC(F)(C4CC4)C3)nc(Sc3ccc(NC(=O)C4CC4)cc3F)n2)n[nH]1 [Compound 170]	≤ 30 nM	10 to 500 nM				
CCC(=O)Nc1ccc(Sc2nc(Nc3cc(C)n[nH]3)cc(N3CC(O)(C(C)C)C3)n2)cc1 [Compound 99]		≤ 10 nM	≤ 50 nM			
Cc1cc(Nc2cc(N3CC(F)(C4CC4)C3)nc(Sc3ccc(NC(=O)CC(F)(F)F)cc3)n2)[nH]n1 [Compound 135]		≤ 10 nM				IC50 (Colo205 cells; COLO 205, 72 h): ≤ 30 nM; IC50 (Colo205 cells; COLO 205, 96 h): ≤ 50 nM
CCC(=O)Nc1ccc(Sc2nc(Nc3cc(C)n[nH]3)cc(N3CC(O)(C(C)CC)C3)n2)cc1 (centres unmarked) [Compound 100]		10 to 500 nM	≤ 50 nM			
Cc1cc(Nc2cc(N3CC(O)(C4CC4)C3)nc(Sc3ccc(NC(=O)C4CC4)cc3)n2)n[nH]1 [Compound 103]		10 to 500 nM				IC50 (Colo205 cells; COLO 205, 72 h): 30 to 200 nM; IC50 (Colo205 cells; COLO 205, 96 h): ≤ 50 nM
O=C(Nc1ccc(Sc2nc(Nc3cc(C4CC4)[nH]n3)cc(N3CC(O)(C4CC4)C3)n2)cc1)C1CC1 [Compound 105]		≤ 10 nM	≤ 50 nM			
Cc1cc(Nc2cc(N3CC(F)(C4CC4)C3)nc(Sc3ccc(NC(=O)C4CC4(F)F)cc3)n2)[nH]n1 (centres unmarked) [Compound 194]	≤ 30 nM	10 to 500 nM				
Cc1cc(Nc2cc(N3CC4(CCCO4)C3)nc(Sc3ccc(NC(=O)C4CC4)cc3)n2)[nH]n1 [Compound 123]	30 to 200 nM			≤ 10 nM	1 to 5 nM	
Cc1cc(Nc2cc(N3CCC3)nc(Sc3ccc(C(=O)NC4CC4)cc3)n2)n[nH]1 [Compound 18]			50 to 1000 nM	10 to 50 nM and < 25 nM		Ki (Aurora-2 (Aurora A)): 5 to 200 nM
Cc1cc(Nc2cc(N3CCC3)nc(Sc3ccc(NC(=O)c4cccnc4C)cc3)n2)[nH]n1 [Compound 63]			> 1000 nM	10 to 50 nM	5 to 200 nM	
CCOP(=O)(O)OC1(C)CN(c2cc(Nc3cc(C)n[nH]3)nc(Sc3ccc(NC(=O)c4ccccc4C(F)(F)F)cc3)n2)C1 [Compound 129]	> 200 nM			≤ 10 nM	≤ 1 nM	
Cc1cc(Nc2cc(N3CC(O)(C4CC4)C3)nc(Sc3ccc(NC(=O)C4CCCC4)cc3)n2)[nH]n1 [Compound 104]		10 to 500 nM	≤ 50 nM			
CCC(=O)Nc1ccc(Sc2nc(Nc3cc(C)n[nH]3)cc(N3CC(O)(c4ccccc4)C3)n2)cc1 [Compound 86]			50 to 1000 nM	≤ 10 nM	≤ 1 nM	
CCC(=O)Nc1ccc(Sc2nc(Nc3cc(C4CC4)[nH]n3)cc(N3CC(O)(C4CC4)C3)n2)cc1 [Compound 102]		≤ 10 nM				IC50 (Colo205 cells; COLO 205, 96 h): ≤ 50 nM
Cc1cc(Nc2cc(N3CC(F)(C4CC4)C3)nc(Sc3ccc(NC(=O)CC4CC4)cc3)n2)[nH]n1 [Compound 171]	30 to 200 nM	500 to 2000 nM				
CCOc1ccc(Sc2nc(Nc3cc(C)n[nH]3)cc(N3CC(C(=O)N4CCCC4)C3)n2)cc1 [Compound 141]	> 200 nM			50 to 2000 nM	1 to 5 nM	
CCC(=O)Nc1ccc(Sc2nc(Nc3cc(C)n[nH]3)cc(N3CC(O)(C4CC4)C3)n2)cc1 [Compound 85]	≤ 30 nM	10 to 500 nM	≤ 50 nM			
CCC(=O)Nc1ccc(Sc2nc(Nc3cc(C)n[nH]3)cc(N3CC(O)(C4CCCCC4)C3)n2)cc1 [Compound 101]			≤ 50 nM	≤ 10 nM	≤ 1 nM	
Cc1cc(Nc2cc(N3CC(O)(C4CC4)C3)nc(Sc3ccc(N4CCCC4=O)cc3)n2)n[nH]1 [Compound 133]	≤ 30 nM			10 to 50 nM and < 25 nM	≤ 1 nM	
COC(=O)c1ccc(Sc2nc(Nc3cc(C4CC4)[nH]n3)cc(N3CC(O)(C4CC4)C3)n2)cc1 [Compound 106]			50 to 1000 nM	≤ 10 nM	≤ 1 nM	
Cc1cc(Nc2cc(N3CCC3)nc(Sc3ccc(NC(=O)c4sccc4Cl)cc3)n2)n[nH]1 [Compound 43]			50 to 1000 nM	10 to 50 nM	1 to 5 nM	
Cc1cc(Nc2cc(N3CC(F)(C4CC4)C3)nc(Sc3ccc(NC(=O)C4CC4)cc3)n2)n[nH]1 [Compound 128]		10 to 500 nM				IC50 (Colo205 cells; COLO 205, 72 h): 30 to 200 nM; IC50 (Colo205 cells; COLO 205, 96 h): ≤ 50 nM
Cc1cc(Nc2cc(N3CC(F)(C4CC4)C3)nc(Sc3ccc4c(c3)N(C)C(C(F)(F)F)N4)n2)[nH]n1 (centres unmarked) [Compound 156]	30 to 200 nM		50 to 1000 nM	10 to 50 nM and < 25 nM	≤ 1 nM	
CCC(Nc1ccc(Sc2nc(Nc3cc(C)n[nH]3)cc(N3CC(O)(C4CC4)C3)n2)cc1)C(F)(F)F (centres unmarked) [Compound 136]	> 200 nM			50 to 2000 nM	≤ 1 nM	
Cc1cc(Nc2cc(N3CCC3)nc(Sc3ccc(NC(=O)Cc4ccc(Cl)cc4)cc3)n2)n[nH]1 [Compound 36]			50 to 1000 nM	10 to 50 nM and < 25 nM	≤ 1 nM	
